According to the supplement of paper PMC10307832:

Legend:
Experiment in all cases: relative viability (nuclei count vs DMSO), 5 days (fraction); higher = more cells survive
Axitinib + Decitabine = compound: CNC(=O)c1ccccc1Sc1ccc2c(/C=C/c3ccccn3)n[nH]c2c1 [Axitinib] + Nc1ncn([C@H]2C[C@H](O)[C@@H](CO)O2)c(=O)n1 [Decitabine] (partner 2 µM)
Procedure, shortened: (§1)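 Lung cancer cell lines were pin-tool dosed in 1536-well plates on the day after seeding, with either a lone drug or a fixed anchor-drug dose plus five library-drug doses (not always all listed) in √10 steps. Nuclei were counted on 4× images after 5 days. Relative viability is the ratio of treated-well to vehicle-well nuclei counts, with each value a median of duplicate plates.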

Bemcentinib + Phenformin = compound: Nc1nc(Nc2ccc3c(c2)CC[C@@H](N2CCCC2)CC3)nn1-c1cc2c(nn1)-c1ccccc1CCC2 [Bemcentinib] + N=C(N)NC(=N)NCCc1ccccc1 [Phenformin] (partner 250 µM)
Procedure, shortened: as §1

[1] = compound: CC1=CC=C(C=C1)C(=O)CN2C3=C(CCCC3)SC2=N [Pifithrin_alpha] + Cc1nc(NC(=O)N2CCC[C@H]2C(N)=O)sc1-c1ccnc(C(C)(C)C(F)(F)F)c1 [Alpelisib] (partner 2 µM)
Procedure, shortened: as §1

Bemcentinib + Pictilisib = compound: Nc1nc(Nc2ccc3c(c2)CC[C@@H](N2CCCC2)CC3)nn1-c1cc2c(nn1)-c1ccccc1CCC2 [Bemcentinib] + CS(=O)(=O)N1CCN(Cc2cc3nc(-c4cccc5[nH]ncc45)nc(N4CCOCC4)c3s2)CC1 [Pictilisib] (partner 1 µM)
Procedure, shortened: as §1

Row | Cell Line | relative viability (Axitinib + Decitabine; first compound 0.005 µM) | relative viability (Axitinib + Decitabine; first compound 0.01581 µM) | relative viability (Axitinib + Decitabine; first compound 0.05 µM) | relative viability (Axitinib + Decitabine; first compound 0.1581 µM) | relative viability (Axitinib + Decitabine; first compound 0.5 µM) | relative viability (Bemcentinib + Phenformin; first compound 0.04 µM) | relative viability (Bemcentinib + Phenformin; first compound 0.1265 µM) | relative viability (Bemcentinib + Phenformin; first compound 0.4 µM) | relative viability (Bemcentinib + Phenformin; first compound 1.265 µM) | relative viability (Bemcentinib + Phenformin; first compound 4 µM) | relative viability ([1]; first compound 1 µM) | relative viability ([1]; first compound 3.162 µM) | relative viability ([1]; first compound 10 µM) | relative viability ([1]; first compound 31.62 µM) | relative viability ([1]; first compound 100 µM) | relative viability (Bemcentinib + Pictilisib; first compound 0.1265 µM) | relative viability (Bemcentinib + Pictilisib; first compound 0.4 µM) | relative viability (Bemcentinib + Pictilisib; first compound 1.265 µM) | relative viability (Bemcentinib + Pictilisib; first compound 4 µM) | relative viability (Bemcentinib + Pictilisib; first compound 0.04 µM)
1 | NCI-H2342 | 0.717 | 0.68 | 0.769 | 0.658 | 0.794 | 0.564 | 0.581 | 0.611 | 0.617 | 0.611 |  |  |  |  |  |  |  |  |  | 
2 | A-427 | 0.58 | 0.602 | 0.553 | 0.57 | 0.589 | 0.305 | 0.308 | 0.332 | 0.337 | 0.258 | 0.756 | 1.04 | 1.03 | 0.836 | 1 | 0.752 | 0.723 | 0.635 | 0.663 | 
3 | NCI-H2126 | 0.617 | 0.595 | 0.571 | 0.583 | 0.562 | 0.502 | 0.496 | 0.51 | 0.596 | 0.568 | 0.714 | 0.714 | 0.685 | 0.623 | 0.655 | 0.483 | 0.531 | 0.485 | 0.485 | 0.475
4 | NCI-H647 | 0.262 | 0.378 | 0.457 | 0.348 | 0.495 | 0.631 | 0.488 | 0.674 | 0.62 | 0.544 | 1.07 | 1.06 | 0.992 |  | 0.736 | 0.602 | 0.427 | 0.455 | 0.363 | 0.385
5 | ChaGo-K-1 | 0.557 | 0.527 | 0.506 | 0.52 | 0.495 | 0.486 | 0.544 | 0.517 | 0.473 | 0.442 |  |  |  |  |  | 0.733 | 0.795 | 0.426 | 0.434 | 0.579
6 | UMC-11 | 0.597 | 0.577 | 0.577 | 0.615 | 0.553 | 0.324 | 0.355 | 0.365 | 0.314 | 0.312 | 1.09 | 1.07 | 1.05 | 0.842 | 1.16 | 0.929 | 0.902 | 0.585 | 0.85 | 0.615
7 | LOU-NH91 | 0.852 | 0.645 | 0.813 | 0.749 | 0.851 | 0.637 | 0.663 | 0.73 | 0.748 | 0.673 | 0.63 | 0.637 | 0.635 | 0.616 | 0.583 | 0.526 | 0.556 | 0.524 | 0.483 | 0.498
8 | HCC-44 | 0.974 | 0.919 | 0.937 | 0.956 | 0.872 | 0.155 | 0.28 | 0.175 | 0.187 | 0.149 | 0.681 | 0.699 | 0.715 | 0.453 | 0.591 | 0.618 | 0.599 | 0.625 | 0.651 | 0.698
9 | HCC-15 | 0.637 | 0.635 | 0.681 | 0.615 | 0.603 | 0.486 | 0.532 | 0.516 | 0.465 | 0.499 | 0.948 | 0.902 | 0.833 | 0.659 | 0.839 | 0.767 | 0.822 | 0.738 | 0.781 | 0.747
10 | NCI-H1975 | 0.411 | 0.407 | 0.389 | 0.388 | 0.395 | 0.405 | 0.428 | 0.428 | 0.437 | 0.417 | 0.58 | 0.445 | 0.385 | 0.346 | 0.299 | 0.291 | 0.301 | 0.28 | 0.277 | 0.279
11 | NCI-H1651 | 0.576 | 0.579 | 0.611 | 0.619 | 0.594 | 0.352 | 0.324 | 0.283 | 0.316 | 0.354 | 0.884 | 0.933 | 0.908 | 0.685 | 0.989 | 0.678 | 0.64 | 0.451 | 0.739 | 0.622
12 | NCI-H522 | 0.639 | 0.725 | 0.625 | 0.63 | 0.624 | 0.598 | 0.733 | 0.729 | 0.722 | 0.674 |  |  |  |  |  |  |  |  |  | 
13 | NCI-H1563 |  |  |  |  |  | 0.671 | 0.742 | 0.671 | 0.671 | 0.618 | 0.967 | 0.919 | 0.936 | 0.922 | 0.82 | 0.629 | 0.635 | 0.655 | 0.626 | 0.634
14 | NCI-H1703 |  |  |  |  |  |  |  |  |  |  | 0.317 | 0.306 | 0.252 | 0.366 | 0.377 | 0.259 | 0.23 | 0.22 | 0.243 | 0.246
15 | Calu-6 |  |  |  |  |  |  |  |  |  |  | 0.884 | 0.918 | 0.961 | 0.622 | 0.857 | 1.15 | 1.1 | 0.953 | 1.03 | 0.917
16 | CAL-12T |  |  |  |  |  | 0.492 | 0.632 | 0.611 | 0.579 | 0.601 |  | 1.04 | 0.971 | 0.736 | 1.13 | 0.569 | 0.532 | 0.347 | 0.364 | 0.302
17 | EBC-1 |  |  |  |  |  |  |  |  |  |  | 0.821 | 0.834 | 0.683 | 0.558 | 0.602 | 0.307 | 0.39 | 0.399 | 0.353 | 0.391
18 | SW 900 | 0.428 |  | 0.477 | 0.4 | 0.602 | 0.396 | 0.588 | 0.557 | 0.648 | 0.458 |  |  |  |  |  |  |  |  |  | 
19 | NCI-H1299 |  |  |  |  |  |  |  |  |  |  | 1.1 | 1.09 | 1.07 | 0.874 | 1.18 | 0.793 | 0.878 | 0.874 | 0.75 | 0.818
20 | NCI-H1650 | 0.441 | 0.31 | 0.434 | 0.381 | 0.406 | 0.368 | 0.477 | 0.583 | 0.43 | 0.394 |  |  |  |  |  | 0.519 | 0.548 | 0.631 | 0.731 | 0.526
21 | NCI-H1623 |  |  |  |  |  | 0.607 | 0.497 | 0.621 | 0.641 | 0.563 |  |  |  |  |  |  |  |  |  | 
